| melting point | SMILES |
| --- | --- |
| 150 to 151 °C | O=C(CCc1oc(-n2cnc3ccccc32)nc1-c1ccc(Cl)cc1)NCCc1ccccn1 [Example 92, 3-[2-(1H-benzimidazol-1-yl)-4-(4-chlorophenyl)-5-oxazolyl]-N-[2-(2-pyridinyl)ethyl]propionamide] |
| 186 to 187 °C | O=C(CCc1oc(-n2cnc3ccccc32)nc1-c1ccc(Cl)cc1)NCC(=O)NCc1ccccc1 [Example 148, 2-({3-[2-(1H-benzimidazol-1-yl)-4-(4-chlorophenyl)-5-oxazolyl]propanoyl}amino)-N-benzylacetamide] |
| 241 to 242 °C | Cc1ccc(CNC(=O)CCc2oc(-n3cnc4ccccc43)nc2-c2ccc(Cl)cc2)cc1 [Example 125, 3-[2-(1H-benzimidazol-1-yl)-4-(4-chlorophenyl)-5-oxazolyl]-N-(4-methylbenzyl)propionamide] |
| 189 to 191 °C | O=C(CCc1oc(-n2cnc3ccccc32)nc1-c1ccc(Cl)cc1)NCc1ccc(Cl)cc1F [Example 159, 3-[2-(1H-benzimidazol-1-yl)-4-(4-chlorophenyl)-5-oxazolyl]-N-(4-chloro-2-fluorobenzyl)propionamide] |
| 181 to 183 °C | O=C(CCc1oc(-n2cnc3ccccc32)nc1-c1ccc(Cl)cc1)NCc1cccc(Br)c1 [Example 171, 3-[2-(1H-benzimidazol-1-yl)-4-(4-chlorophenyl)-5-oxazolyl]-N-(3-bromobenzyl)propionamide] |
| 173 to 174 °C | O=C(CCc1oc(-n2cnc3ccccc32)nc1-c1ccc(Cl)cc1)NCc1ccc(-c2csnn2)cc1 [Example 150, 3-[2-(1H-benzimidazol-1-yl)-4-(4-chlorophenyl)-5-oxazolyl]-N-[4-(1,2,3-thiadiazol-4-yl)benzyl]propionamide] |
| 133 to 136 °C | CCOP(=O)(Cc1ccccc1NC(=O)CCCc1oc(-n2cnc3ccccc32)nc1-c1ccc(Cl)cc1)OCC |
| 265 to 266 °C | NC(=O)CCc1oc(-n2cnc3ccccc32)nc1-c1ccc(Cl)cc1 [Example 8, 3-[2-(1H-benzimidazol-1-yl)-4-(4-chlorophenyl)-5-oxazolyl]propionamide] |
| 162 to 163 °C | CCOP(=O)(OCC)c1ccc(NC(=O)CCCc2oc(-n3cnc4ccccc43)nc2-c2ccc(Cl)cc2)cc1 |
| 190 to 191 °C | Cc1ccc(CNC(=O)CCCc2oc(-n3cnc4ccccc43)nc2-c2ccc(Cl)cc2)cc1 [Example 196, 4-[2-(1H-benzimidazol-1-yl)-4-(4-chlorophenyl)-5-oxazolyl]-N-(4-methylbenzyl)butanamide] |
| 156 to 157 °C | O=C(CCc1oc(-n2cnc3ccccc32)nc1-c1ccc(Cl)cc1)NCCOc1ccccc1 [Example 162, 3-[2-(1H-benzimidazol-1-yl)-4-(4-chlorophenyl)-5-oxazolyl]-N-(2-phenoxyethyl)propionamide] |
| 249 to 250 °C | CCOP(=O)(OCC)c1ccc(NC(=O)CCc2oc(-n3cnc4ccccc43)nc2-c2ccc(Cl)cc2)cc1 |
| 155 to 156 °C | O=C(CCc1oc(-n2cnc3ccccc32)nc1-c1ccc(Cl)cc1)NCc1cc(F)cc(F)c1 [Example 164, 3-[2-(1H-benzimidazol-1-yl)-4-(4-chlorophenyl)-5-oxazolyl]-N-(3,5-difluorobenzyl)propionamide] |
| 214 to 216 °C | O=C(CCc1oc(-n2cnc3ccccc32)nc1-c1ccc(Cl)cc1)NCc1ccncc1 [Example 155, 3-[2-(1H-benzimidazol-1-yl)-4-(4-chlorophenyl)-5-oxazolyl]-N-(4-pyridinylmethyl)propionamide] |
| 190 to 191 °C | O=C(CCc1oc(-n2cnc3ccccc32)nc1-c1ccc(Cl)cc1)NCc1ccc(Cl)c(Cl)c1 [Example 147, 3-[2-(1H-benzimidazol-1-yl)-4-(4-chlorophenyl)-5-oxazolyl]-N-(3,4-dichlorobenzyl)propionamide] |
| 205 to 206 °C | O=C(CCc1oc(-n2cnc3ccccc32)nc1-c1ccc(Cl)cc1)NCc1ccccc1 [Example 132, 3-[2-(1H-benzimidazol-1-yl)-4-(4-chlorophenyl)-5-oxazolyl]-N-benzylpropionamide] |

More lines, now with the values behind:

| SMILES | melting point |
| --- | --- |
| CNS(=O)(=O)Cc1ccc(NC(=O)CCc2oc(-n3ccnc3)nc2-c2ccc(Cl)cc2)cc1 [Example 44, 3-[2-(1H-imidazol-1-yl)-4-(4-chlorophenyl)-5-oxazolyl]-N-(4-{[(methylamino)sulfonyl]methyl}phenyl)propionamide] | 224 to 225 °C |
| CCOP(=O)(Cc1ccc(NC(=O)CCCCCc2sc(-n3cnc4ccccc43)nc2-c2ccc(Cl)cc2)cc1)OCC | 149 to 151 °C |
| CCOP(=O)(Cc1ccc(NC(=O)CCCc2oc(-c3ccccc3)nc2-c2ccc(Cl)cc2)cc1)OCC | 152 to 153 °C |
| CN(Cc1ccc(NC(=O)CCc2oc(-c3ccccc3)nc2-c2ccc(Cl)cc2)cc1)C1CCOCC1 [Example 94, 3-[4-(4-chlorophenyl)-2-phenyl-5-oxazolyl]-N-(4-{[N-methyl-N-(4-tetrahydropyranyl)amino]methyl}phenyl)propionamide] | 154 to 155 °C |
| Cc1ncn(-c2nc(-c3ccc(Cl)cc3)c(CCC(N)=O)o2)c1C [Example 19, 3-[4-(4-chlorophenyl)-2-(4,5-dimethyl-1-imidazolyl)-5-oxazolyl]propionamide] | 232 to 233 °C |
| CCOP(=O)(Cc1ccc(NC(=O)/C=C/c2oc(-c3ccccc3)nc2-c2ccc(Cl)cc2)cc1)OCC | 204 to 206 °C |
| CN(CCS(C)(=O)=O)C(=O)CCc1oc(-n2cnc3ccccc32)nc1-c1ccc(Cl)cc1 [Example 303, 3-[2-(1H-benzoimidazol-1-yl)-4-(4-chlorophenyl)-5-oxazolyl]-N-[2-(methylsulfonyl)ethyl]-N-methylpropanamide] | 141 to 142 °C |
| O=C(CCc1oc(-n2cnc3ccccc32)nc1-c1ccc(Cl)cc1)N1CCCC(O)C1 (stereo not shown) [Example 300, 1-{3-[2-(1H-benzoimidazol-1-yl)-4-(4-chlorophenyl)-5-oxazolyl]propanoyl}-3-piperidinol] | 104 to 105 °C |
| NC(=O)CCc1oc(Cc2ccccc2)nc1-c1ccc(Cl)cc1 [Example 18, 3-[2-benzyl-4-(4-chlorophenyl)-5-oxazolyl]propionamide] | 169 to 170 °C |
| COc1ccccc1NC(=O)Cc1ccc(NC(=O)CCc2oc(-n3cnc4ccccc43)nc2-c2ccc(Cl)cc2)cc1 [Example 139, 2-[4-(N-{3-[2-(1H-benzimidazol-1-yl)-4-(4-chlorophenyl)-5-oxazolyl]propanoyl}amino)phenyl]-N-(2-methoxyphenyl)acetamide] | 258 to 259 °C |
| CCOP(=O)(Cc1ccc(NC(=O)CCc2oc(N3CCOCC3)nc2-c2ccc(Cl)cc2)cc1)OCC | 186 to 187 °C |
| CCOP(=O)(Cc1ccc(NC(=O)CCc2oc(C3CCCCC3)nc2-c2ccc(Cl)cc2)cc1)OCC | 133 to 134 °C |
| NC(=O)c1ccc(NC(=O)CCc2sc(-c3ccccc3)nc2-c2ccc(Cl)cc2)cc1 [Example 67, 4-({3-[4-(4-chlorophenyl)-2-phenyl-5-thiazolyl]propanoyl}amino)benzamide] | ≥ 300 °C (dec.) |
| CCOP(=O)(Cc1ccc(NC(=O)CCCc2sc(-n3cnc4ccccc43)nc2-c2ccc(Cl)cc2)cc1)OCC | 140 to 141 °C |
| CCOP(=O)(Cc1ccc(NC(=O)CCc2oc(-n3cnc4ccccc43)nc2-c2ccccc2)cc1)OCC | 148 to 149 °C |
| CCOP(=O)(Cc1ccc(NC(=O)/C=C/c2sc(-n3cnc4ccccc43)nc2C)cc1)OCC | 150 to 151 °C |
| NC(=O)CCc1sc(-c2ccccc2)nc1-c1ccc(Cl)cc1 [Example 46, 3-[4-(4-chlorophenyl)-2-phenyl-5-thiazolyl]propionamide] | 175 to 176 °C |
| O=C(CCc1oc(-n2cnc3ccccc32)nc1-c1ccc(Cl)cc1)N1CCS(=O)(=O)CC1 [Example 194, 4-{3-[2-(1H-benzimidazol-1-yl)-4-(4-chlorophenyl)-5-oxazolyl]propanoyl}thiomorpholine-1,1-dioxide] | 227 to 228 °C |
| COP(=O)(Cc1ccc(NC(=O)CCc2oc(-c3ccccc3)nc2-c2ccc(Cl)cc2)cc1)OC | 153 to 154 °C |
| NC(=O)CCc1oc(N2CCOCC2)nc1-c1ccc(Cl)cc1 [Example 9, 3-[4-(4-chlorophenyl)-2-(4-morpholinyl)-5-oxazolyl]propionamide] | 180 to 181 °C |
| CCOP(=O)(CCCNC(=O)CCc1oc(-n2cnc3ccccc32)nc1-c1ccc(Cl)cc1)OCC | 130 to 131 °C |
| CCOP(=O)(Cc1ccc(NC(=O)CCc2sc(NC(=O)CCc3ccccc3)nc2-c2ccc(Cl)cc2)cc1)OCC | 208 to 209 °C |
| CCOP(=O)(Cc1ccc(NC(=O)CCc2sc(NC(=S)NCc3ccccc3)nc2-c2ccc(Cl)cc2)cc1)OCC | 202 to 203 °C |
| NC(=O)CCc1oc(C2CCCCC2)nc1-c1ccc(Cl)cc1 [Example 17, 3-[4-(4-chlorophenyl)-2-cyclohexyl-5-oxazolyl]propionamide] | 142 to 143 °C |
| NC(=O)CCc1oc(Sc2ccccn2)nc1-c1ccc(Cl)cc1 [Example 36, 3-[4-(4-chlorophenyl)-2-(2-pyridinylsulfanyl)-5-oxazolyl]propionamide] | 162 to 163 °C |
| COC(=O)Cc1csc(NC(=O)CCc2oc(-n3cnc4ccccc43)nc2-c2ccc(Cl)cc2)n1 [Example 129, 3-[2-(1H-benzimidazol-1-yl)-4-(4-chlorophenyl)-5-oxazolyl]-N-{4-[(methoxycarbonyl)methyl]-2-thiazolyl}propionamide] | 233 to 234 °C |
| CCOP(=O)(Cc1ccc(NC(=O)CCc2sc(NC(=S)NC(=O)c3ccccc3)nc2-c2ccc(Cl)cc2)cc1)OCC | 208 to 209 °C |
| CCOP(=O)(Cc1ccc(NC(=O)CCCCc2sc(-n3cnc4ccccc43)nc2-c2ccc(Cl)cc2)cc1)OCC | 168 to 169 °C |
| COc1cc(OC)c(CNC(=O)CCc2oc(-n3cnc4ccccc43)nc2-c2ccc(Cl)cc2)c(OC)c1 [Example 161, 3-[2-(1H-benzimidazol-1-yl)-4-(4-chlorophenyl)-5-oxazolyl]-N-(2,4,6-trimethoxybenzyl)propionamide] | 206 to 208 °C |
| CCOP(=O)(Cc1ccc(NC(=O)Cc2sc(-n3cnc4ccccc43)nc2-c2ccc(Cl)cc2)cc1)OCC | 154 to 155 °C |
